Results on one molecule are retold here after patent publication US8895317B2, “Reagent for measuring active nitrogen” (The University of Tokyo, priority 2008, dated 2014).

Series [1] is described as follows: Stability under physiological conditions. The class given is physicochemical. The text has this: (§1) Therefore, use of DCl-DA Cal enables observation of intracellular reactive nitrogen species over such a long period of time that cannot be achieved by conventional fluorescent probes for measuring reactive nitrogen.
The nature of series [2]: Fluorescence quantum yield. The class given is physicochemical. To be noted: triazole compound at a physiological pH.
Source text: as §1

Regarding `O=C(O)CN(CC(=O)O)Cc1c2oc3c(CN(CC(=O)O)CC(=O)O)c(O)c(Cl)cc3c(-c3ccc4[nH]nnc4c3C(=O)O)c-2cc(Cl)c1=O` [triazole compound], in series [1], the “stability under physiological conditions” value was “stable under physiological conditions”. The “fluorescence quantum yield Φf” value in series [2] was 0.63.
